# PubChem BioAssay AID687022 (Broad Institute, 2013)
# Activity calls are given as the source filed them.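 How the source made its calls: active means Fitted curve of melting temperature shift crosses the 1.0 threshold at or below the sample's highest valid tested concentration; inconclusive means Flat fit with activity 30 to 70, or invalid fit; inactive means Opposite direction, flat within 30, or no crossing.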
# Target: Fibroblast growth factor 22 (Homo sapiens) (UniProt Q9HCT0)
# Experiment: FGF22 ligand-induced thermal stabilization – biophysical, thermal shift, cherry-pick, FGF22 synaptogenesis inhibitor project, dose response (AID 687022)
# Conditions: recombinant FGF22 thermal shift, SYPRO orange melting
# Fibroblast growth factor 22 (Homo sapiens), sequence (Q9HCT0 whole entry, looked up): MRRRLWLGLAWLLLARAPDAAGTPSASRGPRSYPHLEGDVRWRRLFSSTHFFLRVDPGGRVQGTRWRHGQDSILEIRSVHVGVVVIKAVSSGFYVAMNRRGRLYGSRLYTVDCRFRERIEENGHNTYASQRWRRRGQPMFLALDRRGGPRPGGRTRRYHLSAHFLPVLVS
row,SMILES,AbsAC1 (concentration giving Tm-shift threshold 1.0)
1,C[C@H]1CN([C@@H](C)CO)S(=O)(=O)c2ccc(-c3cccc(F)c3)cc2O[C@H]1CN(C)C(=O)Nc1cc(F)ccc1F,6.67 µM
2,O=[N+]([O-])c1ccc(N/N=C/c2ccc[nH]2)cc1,8.39 µM
3,NS(=O)(=O)c1ccc(NC(=O)Nc2cccc(Cl)c2)cc1,16.8 µM
4,Oc1ccc(/C=N/N=C/c2ccc(O)c(O)c2)cc1O,2.05 µM
5,O=C(O)c1ccc(NC(=O)c2cccc(S(=O)(=O)Nc3ccc(C(=O)O)cc3)c2)cc1,> 5 µM (inactive)
6,CSc1nc2nc(Cl)c(Cl)nc2[nH]1,> 38 µM (inactive)
7,NS(=O)(=O)c1cccc(NC(=O)COC(=O)c2cc([N+](=O)[O-])ccc2N2CCCC2)c1,5.86 µM
8,Nc1nnc(CC(=O)N/N=C/c2cc([N+](=O)[O-])cc(Br)c2O)s1,4.99 µM
9,O=C(O)C[C@@H]1C[C@H]2c3cc(NC(=O)Nc4ccc(C(F)(F)F)cc4)ccc3O[C@H]2[C@@H](CO)O1,> 10 µM (inactive)
10,COc1ccc(NC(=O)c2[nH]ncc2[N+](=O)[O-])cc1,17.9 µM
11,C/C=C/c1ccc2c(c1)O[C@H](CN(C)C(=O)Nc1cc(F)ccc1F)[C@H](C)CN([C@H](C)CO)S2(=O)=O,> 42 µM (inactive)
12,O=C(Nc1ccc2c(c1)OCO2)c1ccc(NC2CC2)c([N+](=O)[O-])c1,17.8 µM
13,COc1ccc(C(=O)N2CCCCC2)cc1S(=O)(=O)Nc1cccc(C(=O)O)c1,9.12 µM
14,O=C(C[C@H]1CC[C@H]2[C@@H](COC[C@@H](O)CN2S(=O)(=O)c2cccc(F)c2)O1)Nc1ccc(-c2ccccc2)cc1,> 38 µM (inactive)
15,Cc1ccc(S(=O)(=O)N(C)C[C@@H]2Oc3cc(Br)ccc3S(=O)(=O)N([C@@H](C)CO)C[C@H]2C)cc1,29.2 µM
16,Cc1cccc(S(=O)(=O)N2C[C@@H](O)COC[C@H]3O[C@H](CC(=O)Nc4ccc(-c5ccccc5)cc4)CC[C@@H]32)c1,16.6 µM
17,COc1ccc([N+](=O)[O-])cc1/C=N/Nc1nn[nH]n1,6.12 µM
18,O=C(O)/C=C/c1cccc(NC(=O)Nc2ccc([N+](=O)[O-])cc2)c1,4.49 µM
19,CCCNC(=O)COC(=O)c1ccccc1C(=O)N(C)C1CCCCC1,3.78 µM

# Now from value to compound:
row,AbsAC1 (concentration giving Tm-shift threshold 1.0),SMILES
1,> 19.5 µM (inactive),COc1ccc(/C(=N\Nc2ccccc2C(=O)O)c2ccccc2)cc1
2,5.56 µM,COc1ccc(-c2nc(-c3ccc(O)cc3O)cs2)cc1OC
3,7.42 µM,CC(=O)Nc1ccc(S(=O)(=O)N(CCc2ccccc2)CC(=O)N/N=C/c2ccc(C(=O)O)cc2)cc1
4,6.61 µM,CC(C)CC(=O)n1sc(NC(=O)c2ccccc2)nc1=O
5,5.81 µM,CCc1nnc(NS(=O)(=O)c2ccc(NC(=O)c3ccc(Br)cc3)cc2)s1
6,5.77 µM,O=C(N/N=C/c1ccc(O)cc1)c1cccc(N/N=C/c2ccc(O)cc2)c1
7,2.6 µM,O=C(Nc1cccc(C(F)(F)F)c1)c1cccc(NS(=O)(=O)c2ccc(O)c(C(=O)O)c2)c1
8,20.3 µM,O=C(Nc1ccccc1)O/N=C/c1ccc(F)cc1
9,26.8 µM,CCN(CC)c1ccc(/C=N/NC(=O)c2c[nH]c3ccccc23)cc1
10,0.867 µM,CN(Cc1c(C(=O)N/N=C/c2ccc(O)cc2)nnn1-c1nonc1N)c1ccccc1
11,2.76 µM,Cn1c(C(=O)NCCc2c[nH]c3ccccc23)cc2sccc21
12,17.9 µM,O=C(N/N=C/c1ccsc1)c1c[nH]c2ccccc12
13,20 µM,O=C(N/N=C/c1ccc([N+](=O)[O-])cc1)c1c[nH]c2ccccc12
14,1.49 µM,COc1cc(/C=N/NC(=O)c2cc3ccccc3[nH]2)ccc1O
15,5.15 µM,Oc1ccc(-c2nc3ccccc3s2)c(O)c1
16,2.71 µM,O=C(N/N=C/c1c[nH]c2ccccc12)c1cccs1
17,20.6 µM,COc1ccccc1-c1ccc2c(c1)O[C@@H](CN(C)C(=O)Nc1cccc(F)c1)[C@H](C)CN([C@@H](C)CO)S2(=O)=O
18,7.61 µM,COc1c(O)ccc(/C=C(\C#N)c2nc3ccccc3[nH]2)c1[N+](=O)[O-]
19,3.12 µM,O=C(N/N=C/c1cccc(Oc2ccccc2)c1)c1cccc(O)c1
20,10.4 µM,COc1ccc(NS(=O)(=O)c2cccc(C(=O)NNC(=O)c3ccccc3O)c2)cc1
21,3.25 µM,CCCOc1ccc(NC(=O)CC2C(=O)N(C)C(=S)N2Cc2ccc3c(c2)OCO3)cc1 (configuration not stated)
22,> 38 µM (inactive),COc1ccc(S(=O)(=O)N(NC2=NS(=O)(=O)c3ccccc32)C(=O)C(C)C)cc1
23,3.22 µM,COc1ccc2c(CC(=O)NNC(=O)c3ccc(O)cc3)coc2c1
